The results in this text go back to patent US8563559B2 (Rigel Pharmaceuticals, Inc., priority 2006, dated 2013).

What is called IC50 is the concentration at which inhibition is half-maximal.

In the first assay the target is T1, Axl (Homo sapiens, UniProt P30530).
T1 construct: endogenous in cells; host or cells: HeLa
T1 sequence (P30530 26-894): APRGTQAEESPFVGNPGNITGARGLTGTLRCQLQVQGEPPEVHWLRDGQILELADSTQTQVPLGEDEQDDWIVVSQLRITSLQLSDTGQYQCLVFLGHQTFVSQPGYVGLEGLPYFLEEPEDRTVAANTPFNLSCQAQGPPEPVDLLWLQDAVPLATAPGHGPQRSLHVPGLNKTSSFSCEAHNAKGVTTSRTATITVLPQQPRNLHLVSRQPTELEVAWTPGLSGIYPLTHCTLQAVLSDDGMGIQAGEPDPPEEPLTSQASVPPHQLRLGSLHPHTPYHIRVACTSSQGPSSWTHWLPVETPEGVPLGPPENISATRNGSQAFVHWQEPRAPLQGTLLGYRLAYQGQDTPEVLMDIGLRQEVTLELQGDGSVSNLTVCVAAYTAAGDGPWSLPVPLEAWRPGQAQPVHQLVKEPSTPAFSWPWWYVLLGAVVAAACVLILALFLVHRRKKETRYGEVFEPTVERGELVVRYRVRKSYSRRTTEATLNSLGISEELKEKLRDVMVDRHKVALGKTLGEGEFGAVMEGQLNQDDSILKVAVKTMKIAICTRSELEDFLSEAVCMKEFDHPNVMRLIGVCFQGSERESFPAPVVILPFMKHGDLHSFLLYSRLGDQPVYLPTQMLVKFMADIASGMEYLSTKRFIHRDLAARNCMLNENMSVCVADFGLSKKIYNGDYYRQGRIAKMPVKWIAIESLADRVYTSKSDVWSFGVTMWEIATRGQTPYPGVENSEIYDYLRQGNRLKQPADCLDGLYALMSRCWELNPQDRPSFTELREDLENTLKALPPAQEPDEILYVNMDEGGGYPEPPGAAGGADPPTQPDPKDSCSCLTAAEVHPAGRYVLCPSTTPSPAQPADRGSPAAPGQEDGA
Kind of assay: Phospho-AKT in-cell Western assay (inhibition of Axl activity). To be noted: Table 1, formula (Ia); Hela cells, Axl antibody cross-linking stimulation, phospho-Akt chemiluminescence normalized to relative cell number. The format is cell-based. The protocol:
The compounds of the invention were tested in the following assay for their ability to inhibit Axl activity.
Phospho-AKT in-Cell Western Assay
• Cell culture plate: 96 well assay plate (Corning 3610), white, clear bottom, tissue-culture treated. • Cells: Hela cells. • Starvation medium: For Axl stimulation: 0.5% FCS (fetal calf serum) in DMEM, plus Axl/Fc (extracellular domain of AXL fused to immunoglobulin Fc region) (R&D, 154-AL) 500 ng/mL. • For EGF (epidermal growth factor) stimulation: 0.5% FCS in DMEM (Dulbecco's modified Eagles medium). • Poly-L-Lysine 0.01% solution (the working solution): 10 μg/ml, dilute In PBS (phosphate buffered saline). • Axl antibody cross-linking: • 1st: Mouse anti-Axl (R&D, MAB154). • 2nd: Biotin-SP-conjugated AffiniPure goat anti-mouse IgG (H+L) (Jackson ImmunoResearch #115-065-003). • Fixing buffer: 4% formaldehyde in PBS. • Wash buffer: 0.1% TritonX-100 in PBS. • Quenching buffer: 3% H2O2, 0.1% Azide in wash buffer, Azide and hydrogen peroxide 1(H2O2) are added fresh. • Blocking buffer: 5% BSA in TBST (tris buffered saline plus 0.1% Tween 20). • Primary antibody: Rabbit anti-human Phospho-Akt antibody (Cell Signaling 9271): 1×250 diluted in blocking buffer. • Secondary antibody: HRP (horse radish peroxidase)-conjugated Goat anti-Rabbit secondary, stock solution: Jackson ImmunoResearch (Goat anti-Rabbit HRP, #111-035-144) 1:1 diluted in glycerol, store at −20° C. The working solution: 1×2000 dilution of stock in blocking buffer. • Chemiluminescent working solution (Pierce, 37030): SuperSignal ELISA (enzyme linked immunosorbant assay) Pico Chemiluminescent substrate. • Crystal Violet solution: Stock: 2.5% Crystal violet in methanol, filtered and kept at ambient temperature. The working solution: dilute the stock 1:20 with PBS immediately before use. • 10% SDS: working solution: 5% SDS (sodium dodecylsulfate), diluted in PBS Methods: Day 1:
A 96 well TC (tissue culture treated) plate was coated with 10 μg/mL poly-L-Lysine at 37° C. for 30 min, washed twice with PBS, and air-dried for 5 minutes before cells were added. Hela cells were seeded at 10,000 cells/well and the cells were starved in 100 μL starvation medium containing Axl/Fc for 24 hrs.
The cells were pre-treated with test compounds by adding 100 μL of 2× test compound to the starvation medium on the cells. The cells were incubated at 37° C. for 1 hr before stimulation.
The cells were stimulated by Axl-antibody cross-linking as follows: A 5×1st/2nd Axl antibody mixture was made (37.5 μg/mL 1st/100 μg/mL 2nd) in starvation medium and nutated at 4° C. with thorough mixing for 1-2 hours for clustering. The resulting mix was warmed to 37° C. 50 μL of 5×Axl 1st/2nd of antibody cluster was added to the cells and the cells were incubated at 37° C. for 5 min.
After 5 minutes stimulation, the plate was flicked to remove medium and the plate was tapped onto paper towels. Formaldehyde (4.0% in PBS, 100 μL) was added to fix the cells and the cells were incubated at ambient temperature for 20 min without shaking.
The cells were washed with a plate washer buffer to remove the formaldehyde solution. The plate was flicked to removed excess wash buffer and tapped onto paper towels. Quenching buffer (100 μL) was added to each well and the cells were incubated at ambient temperature for 20 minutes without shaking.
The cells were washed with a plate washer buffer to remove the quenching buffer. Blocking buffer (100 μL) was added and the cells were incubated at ambient temperature for at least an hour with gentle shaking.
The cells were washed with a plate washer buffer and diluted primary antibody (50 μL) was added to each well (blocking buffer was added to the negative control wells instead). The plates were incubated overnight at 4° C. with gentle shaking.
The wash buffer was removed, diluted secondary antibody (100 μL) was added, and the cells were incubated at ambient temperature for 1 hour with gentle shaking. […]
`CNC(=O)[C@H]1C[C@H]2C[C@H](C2(C)C)[C@@]1(C)Nc1nc(Nc2ccc(N3CCC(F)(F)CC3)c(F)c2)ncc1F` [Compound 35, (1R,2R,3S,5R)-2-(5-fluoro-2-(3-fluoro-4-(4,4-difluoropiperidin-1-yl)phenylamino)pyrimidin-4-ylamino)-N,2,6,6-tetramethylbicyclo[3.1.1]heptane-3-carboxamide] showed an IC50 greater than 20 µM.
For the compound `CNC(=O)[C@H]1C[C@H]2C[C@H](C2(C)C)[C@@]1(C)Nc1nc(Nc2ccc(N3CCN(S(C)(=O)=O)CC3)c(Cl)c2)ncc1F` [Compound 36, (1R,2R,3S,5R)-2-(5-fluoro-2-(3-chloro-4-(4-methylsulfonylpiperazin-1-yl)phenylamino)pyrimidin-4-ylamino)-N,2,6,6-tetramethylbicyclo[3.1.1]heptane-3-carboxamide], the IC50 is 1 to 10 µM.
Regarding `CNC(=O)[C@H]1C[C@H]2C[C@H](C2(C)C)[C@@]1(C)Nc1nc(Nc2ccc(N3CCN(S(C)(=O)=O)CC3)c(C(F)(F)F)c2)ncc1F` [Compound 37, (1R,2R,3S,5R)-2-(5-fluoro-2-(3-trifluoromethyl-4-(4-methylsulfonylpiperazin-1-yl)phenylamino)pyrimidin-4-ylamino)-N,2,6,6-tetramethylbicyclo[3.1.1]heptane-3-carboxamide], the IC50 is greater than 20 µM.
On to `CNC(=O)[C@H]1C[C@H]2C[C@H](C2(C)C)[C@@]1(C)Nc1nc(Nc2ccc(N3CCN(C(C)=O)CC3)c(Cl)c2)ncc1F` [Compound 38, (1R,2R,3S,5R)-2-(5-fluoro-2-(3-chloro-4-(4-acetylpiperazin-1-yl)phenylamino)pyrimidin-4-ylamino)-N,2,6,6-tetramethylbicyclo[3.1.1]heptane-3-carboxamide], for which the 50% inhibitory concentration (IC50) fell in the range of 1 to 10 µM.
Take `CNC(=O)[C@H]1C[C@H]2C[C@H](C2(C)C)[C@@]1(C)Nc1nc(Nc2ccc(N3CCN(C(C)=O)CC3)c(C(F)(F)F)c2)ncc1F` [Compound 39, (1R,2R,3S,5R)-2-(5-fluoro-2-(3-trifluoromethyl-4-(4-acetylpiperazin-1-yl)phenylamino)pyrimidin-4-ylamino)-N,2,6,6-tetramethylbicyclo[3.1.1]heptane-3-carboxamide]: the IC50 is greater than 20 µM.
As for `CNC(=O)[C@H]1C[C@H]2C[C@H](C2(C)C)[C@@]1(C)Nc1nc(Nc2ccc(OCCN3CCCC3)cc2)ncc1F` [Compound 40, (1R,2R,3S,5R)-2-(5-fluoro-2-(4-(2-(pyrrolidin-1-yl)ethoxy)phenylamino)pyrimidin-4-ylamino)-N,2,6,6-tetramethylbicyclo[3.1.1]heptane-3-carboxamide], the IC50 was in the range of 1 to 10 µM.
Same read-out and setting: in the case of `CNC(=O)[C@H]1C[C@H]2C[C@H](C2(C)C)[C@@]1(C)Nc1nc(Nc2ccc(N3CCN(CCO)CC3)cc2)ncc1Cl` [Compound 41, (1R,2R,3S,5R)-2-(5-chloro-2-(4-(4-(2-hydroxyethyl)piperazin-1-yl)phenylamino)pyrimidin-4-ylamino)-N,2,6,6-tetramethylbicyclo[3.1.1]heptane-3-carboxamide] it was less than 1 µM; in that of `CNC(=O)[C@H]1C[C@H]2C[C@H](C2(C)C)[C@@]1(C)Nc1nc(Nc2ccc(N3CCN(CCO)CC3)cc2)ncc1C` [Compound 42, (1R,2R,3S,5R)-2-(5-methyl-2-(4-(4-(2-hydroxyethyl)piperazin-1-yl)phenylamino)pyrimidin-4-ylamino)-N,2,6,6-tetramethylbicyclo[3.1.1]heptane-3-carboxamide], 1 to 10 µM; in that of `CNC(=O)[C@H]1C[C@H]2C[C@H](C2(C)C)[C@@]1(C)Nc1nc(Nc2ccc(N3CCN(C)CC3)c(F)c2)ncc1C` [Compound 43, (1R,2R,3S,5R)-2-(5-methyl-2-(3-fluoro-4-(4-methylpiperazin-1-yl)phenylamino)pyrimidin-4-ylamino)-N,2,6,6-tetramethylbicyclo[3.1.1]heptane-3-carboxamide], less than 1 µM.
Same read-out and setting: under `CNC(=O)[C@H]1C[C@H]2C[C@H](C2(C)C)[C@@]1(C)Nc1nc(Nc2ccc(N3CCC(F)(F)CC3)c(F)c2)ncc1C` [Compound 44, (1R,2R,3S,5R)-2-(5-methyl-2-(3-fluoro-4-(4,4-difluoropiperidin-1-yl)phenylamino)pyrimidin-4-ylamino)-N,2,6,6-tetramethylbicyclo[3.1.1]heptane-3-carboxamide] stands 1 to 10 µM.

Staying with this assay, now noted: Table 3, formula (Ic); Hela cells, Axl antibody cross-linking stimulation, phospho-Akt chemiluminescence normalized to relative cell number.
For the compound `CCN(CC)CCN1CCOc2cc(Nc3ncc(Cl)c(N[C@@]4(C)[C@@H](C(=O)NC)C[C@H]5C[C@@H]4C5(C)C)n3)ccc21` [Compound 45, (1R,2R,3S,5R)-2-(5-chloro-2-((3,4-dihydro-4-(2-(diethylamino)ethyl)-2H-benzo[b][1,4]oxazin-7-yl)amino)pyrimidin-4-ylamino)-N,2,6,6-tetramethylbicyclo[3.1.1]heptane-3-carboxamide], the half-maximal inhibitory concentration (IC50) was less than 1 µM.
Regarding `CCN(CC)CCN1CCOc2cc(Nc3ncc(F)c(N[C@@]4(C)[C@@H](C(=O)NC)C[C@H]5C[C@@H]4C5(C)C)n3)ccc21` [Compound 46, (1R,2R,3S,5R)-2-(5-fluoro-2-((3,4-dihydro-4-(2-(diethylamino)ethyl)-2H-benzo[b][1,4]oxazin-7-yl)amino)pyrimidin-4-ylamino)-N,2,6,6-tetramethylbicyclo[3.1.1]heptane-3-carboxamide], the IC50 is less than 1 µM.
`CNC(=O)[C@H]1C[C@H]2C[C@H](C2(C)C)[C@@]1(C)Nc1nc(Nc2ccc3c(c2)OCCN3CCN(C)C)ncc1Cl` [Compound 47, (1R,2R,3S,5R)-2-(5-chloro-2-((3,4-dihydro-4-(2-(dimethylamino)ethyl)-2H-benzo[b][1,4]oxazin-7-yl)amino)pyrimidin-4-ylamino)-N,2,6,6-tetramethylbicyclo[3.1.1]heptane-3-carboxamide] gave an IC50 of less than 1 µM.
`CNC(=O)[C@H]1C[C@H]2C[C@H](C2(C)C)[C@@]1(C)Nc1nc(Nc2ccc3c(c2)OCCN3CCN(C)C)ncc1F` [Compound 48, (1R,2R,3S,5R)-2-(5-fluoro-2-((3,4-dihydro-4-(2-(dimethylamino)ethyl)-2H-benzo[b][1,4]oxazin-7-yl)amino)pyrimidin-4-ylamino)-N,2,6,6-tetramethylbicyclo[3.1.1]heptane-3-carboxamide] yielded an IC50 of 1 to 10 µM.
